Data on 19 compounds can be found in PMC7464201, “Synthesis and Cytotoxic Activity of Novel C-23-Modified Asiatic Acid Derivatives” (Molecules, 2020).

In data set [1] the test system is human colon (HCT-116) cancer cell line. Briefly: MTT cytotoxicity assay, HCT116. Type of data set: cell-based. As to conditions: for IC50: Homo sapiens, HCT-116, 72 h, six concentrations, mean ± SD of three independent experiments. As to the method:
(§1) To establish a SAR of the C-3 (R2) and C-23 (R1) of the AA derivatives, new compounds were subjected to MTT assays to evaluate their in-vitro antiproliferative activities against ovarian (SKOV-3) and colon (HCT-116) cancer cell lines, the IC50 values (the concentration that inhibits 50% of cell growth) of which are summarized in Table 1. Doxorubicin was used as the positive drug.
(§2) HCT116, SKOV-3, A549, A2780, HepG2, HL-60 and MCF-7 cells were incubated in DMEM with 10% heat-inactivated FBS in a humidified atmosphere of 5.0% CO2 at 37 °C. The in-vitro cytotoxicity of AA derivatives was determined using MTT assay. A 100-μL volume of culture medium at a concentration of 3 × 10^4 cell/mL was added to 96-well plate wells, which were maintained in a humidified atmosphere of 5.0% CO2 at 37 °C. After 24 h, 10 μL solution of AA derivatives and doxorubicin dissolved in DMSO and phophate buffered saline (PBS) and then diluted with DMEM under a concentration gradient, was added in the wells for final concentrations of 100, 10, 1, 0.1, 0.01, 0.001 μM of compounds in HCT116 and SKOV-3 cells and 125, 25, 5, 1, 0.2, 0.04 μM in A549, A2780, HepG2, HL-60 and MCF-7 cells. After 72 h incubation in a humidified atmosphere of 5.0% CO2 at 37 °C, 20 μl MTT solution (5 mg/mL) was added into each well and the cells were incubated. After 4 h, 100 μL HCl aqueous solution (0.01 M) with 10% SDS and 5% isobutanol was added into each well to dissolve the precipitated formazan and the absorbance was read at 570 nm on Thermo Scientific Varioskan Flash plate reader. All IC50 values were averaged from three independent experiments.

Data set [2] has as its system human ovarian (SKOV-3) cancer cell line. Kind of data set: MTT cytotoxicity assay, SKOV-3. The settings on record: for IC50: Homo sapiens, SK-OV-3, 72 h, six concentrations, mean ± SD of three independent experiments. Format: cell-based. As for the experimental part: as §1, §2

The structures appear in SMILES notation.

In the case of `CO[C@@H]1C[C@@]2(C)[C@@H](CC[C@]3(C)[C@@H]2CC=C2[C@@H]4[C@@H](C)[C@H](C)CC[C@]4(C(=O)NCc4ccccc4)CC[C@]23C)[C@](C)(C(=O)N(C)C)[C@H]1O` [Compound 13j, α-Methoxy-3β-Hydroxy-Urs-12-Ene-28-Benzyl Amide-23-Dimethylamide], in data set [1] (MTT), the midpoint of inhibition, the IC50, lay at 9.6 ± 4.58 µM.

Regarding `CO[C@@H]1C[C@@]2(C)[C@@H](CC[C@]3(C)[C@@H]2CC=C2[C@@H]4[C@@H](C)[C@H](C)CC[C@]4(C(=O)NCc4ccccc4)CC[C@]23C)[C@](C)(C(N)=O)[C@H]1O` [Compound 13a, α-Methoxy-3β-Hydroxy-Urs-12-Ene-28-Benzyl Amide-23-Amide], half-maximal inhibition in data set [1] (MTT) (IC50) was put at 7.45 ± 1.62 µM.

In the case of `COC(=O)[C@]1(C)C(=O)[C@H](OC)C[C@]2(C)[C@H]3CC=C4[C@@H]5[C@@H](C)[C@H](C)CC[C@]5(C(=O)NCc5ccccc5)CC[C@@]4(C)[C@]3(C)CC[C@@H]12` [Compound 11, α-Methoxy-3-Oxo-Urs-12-Ene-28-Benzyl Amide-23-Methyl Ester], in data set [2] (MTT), the IC50 (usually the midpoint of a concentration-inhibition curve) is > 100 µM and the “cytotoxic activity against SKOV-3 cell line (in words)” value is listed as “lost activity”. For the same compound, in data set [1] (MTT), the IC50 is > 100 µM and the “cytotoxic activity against HCT116 cell line (in words)” value is given as “lost activity”.

In the case of `CO[C@@H]1C[C@@]2(C)[C@@H](CC[C@]3(C)[C@@H]2CC=C2[C@@H]4[C@@H](C)[C@H](C)CC[C@]4(C(=O)NCc4ccccc4)CC[C@]23C)[C@](C)(C=O)C1=O` [Compound 5, α-Methoxy-3,23-Dioxo-Urs-12-Ene-28-Benzylamide], the IC50 is > 100 µM in data set [2] (MTT) and 26 ± 6.68 µM in data set [1] (MTT).

In data set [1] (MTT), `CO[C@@H]1C[C@@]2(C)[C@@H](CC[C@]3(C)[C@@H]2CC=C2[C@@H]4[C@@H](C)[C@H](C)CC[C@]4(C(=O)NCc4ccccc4)CC[C@]23C)[C@](C)(C(=O)NC(C)C)[C@H]1O` [Compound 13d, α-Methoxy-3β-Hydroxy-Urs-12-Ene-28-Benzyl Amide-23-Isopropylamide] gave an IC50 of 8.57 ± 3.04 µM.

Regarding `COC(=O)C(C)NC(=O)C1(C)C(OC(C)=O)C(OC)CC2(C)C1CCC1(C)C2CC=C2C3C(C)C(C)CCC3(C(=O)NCc3ccccc3)CCC21C` [Compound 14f, N-(2α-Methoxy-3β-Acetoxy-Urs-12-Ene-28-Benzylamide-23-oyl)-L-Alanine Methyl Ester], the figures for the IC50 in data set [2] (MTT) and in data set [1] (MTT) were > 100 µM and > 50 µM, respectively.

With `CO[C@@H]1C[C@]2(C)[C@H]3CC=C4[C@@H]5[C@@H](C)[C@H](C)CC[C@]5(C(=O)NCc5ccccc5)CC[C@@]4(C)[C@]3(C)CC[C@H]2[C@](C)(C=O)[C@H]1O` [Compound 6, α-Methoxy-3β-Hydroxy-23-Oxo-Urs-12-Ene-28-Benzylamide], the IC50 in data set [1] (MTT) came out at 8.46 ± 1.64 µM.

`COc1cccc2c1C(=O)c1c(O)c3c(c(O)c1C2=O)C[C@@](O)(C(=O)CO)C[C@@H]3O[C@H]1C[C@H](N)[C@H](O)[C@H](C)O1` [Doxorubicin, reference compound]: the values for the IC50 in data set [2] (MTT) and in data set [1] (MTT) were 0.08 ± 0.01 µM and 0.03 ± 0.02 µM, respectively.

In data set [1] (MTT), `CCNC(=O)[C@@]1(C)[C@@H]2CC[C@]3(C)[C@H](CC=C4[C@@H]5[C@@H](C)[C@H](C)CC[C@]5(C(=O)NCc5ccccc5)CC[C@]43C)[C@@]2(C)C[C@@H](OC)[C@@H]1O` [Compound 13c, α-Methoxy-3β-Hydroxy-Urs-12-Ene-28-Benzyl Amide-23-Ethylamide] gave an IC50 of 11 ± 4.28 µM.

For `COC(=O)C(C)NC(=O)C1(C)C(O)C(OC)CC2(C)C1CCC1(C)C2CC=C2C3C(C)C(C)CCC3(C(=O)NCc3ccccc3)CCC21C` [Compound 13f, N-(2α-Methoxy-3β-Hydroxy-Urs-12-Ene-28-Benzylamide-23-Oyl)-L-Alanine Methyl Ester], the IC50 in data set [2] (MTT) is 3.09 ± 1.54 µM; in data set [1] (MTT), 4.35 ± 1.05 µM.

Consider `C#CCNC(=O)[C@@]1(C)[C@@H]2CC[C@]3(C)[C@H](CC=C4[C@@H]5[C@@H](C)[C@H](C)CC[C@]5(C(=O)NCc5ccccc5)CC[C@]43C)[C@@]2(C)C[C@@H](OC)[C@@H]1O` [Compound 13e, α-Methoxy-3β-Hydroxy-Urs-12-Ene-28-Benzyl Amide-23-Propargylamide], for which the IC50 came out at 6.72 ± 4.32 µM in data set [2] (MTT) and 8.03 ± 2.79 µM in data set [1] (MTT).

Regarding `CO[C@@H]1C[C@]2(C)[C@H]3CC=C4[C@@H]5[C@@H](C)[C@H](C)CC[C@]5(C(=O)NCc5ccccc5)CC[C@@]4(C)[C@]3(C)CC[C@H]2[C@](C)(C=O)[C@H]1OC(C)=O` [Compound 12, α-Methoxy-3β-Acetoxy-23-Oxo-Urs-12-Ene-28-Benzyl Amide], the IC50 is > 100 µM in data set [2] (MTT) and 6.69 ± 1.15 µM in data set [1] (MTT).

Take `CCNC(=O)[C@@]1(C)[C@@H]2CC[C@]3(C)[C@H](CC=C4[C@@H]5[C@@H](C)[C@H](C)CC[C@]5(C(=O)NCc5ccccc5)CC[C@]43C)[C@@]2(C)C[C@@H](OC)[C@@H]1OC(C)=O` [Compound 14c, α-Methoxy-3β-Acetoxy-Urs-12-Ene-28-Benzyl Amide-23-Ethylamide]: the IC50 in data set [2] (MTT) and in data set [1] (MTT) was > 100 µM in each case.

In the case of `CCOC(=O)CCCNC(=O)[C@@]1(C)[C@@H]2CC[C@]3(C)[C@H](CC=C4[C@@H]5[C@@H](C)[C@H](C)CC[C@]5(C(=O)NCc5ccccc5)CC[C@]43C)[C@@]2(C)C[C@@H](OC)[C@@H]1OC(C)=O` [Compound 14i, N-(2α-Methoxy-3β-Acetoxy-Urs-12-Ene-28-Benzylamide-23-Oyl)-4-Aminobutyric Ethyl Ester], the IC50 in data set [2] (MTT) and in data set [1] (MTT) was > 100 µM throughout.

As to `COC(=O)[C@@]1(C)[C@@H]2CC[C@]3(C)[C@H](CC=C4[C@@H]5[C@@H](C)[C@H](C)CC[C@]5(C(=O)NCc5ccccc5)CC[C@]43C)[C@@]2(C)C[C@@H](OC)[C@@H]1O` [Compound 9, α-Methoxy-3β-Hydroxy-Urs-12-Ene-28-Benzylamide-23-Methyl Ester], the IC50 in data set [2] (MTT) came to 6.81 ± 3.87 µM; in data set [1] (MTT), 3.07 ± 1.48 µM. Besides, in data set [2] (relative to AA), the “fold more active than AA against SKOV-3 cell line” value was determined as 3 fold. Also, in data set [1] (relative to AA), the “fold more active than AA against HCT116 cell line” value came out at 8 fold.

Take `COC(=O)C(NC(=O)C1(C)C(O)C(OC)CC2(C)C1CCC1(C)C2CC=C2C3C(C)C(C)CCC3(C(=O)NCc3ccccc3)CCC21C)C(C)C` [Compound 13g, N-(2α-Methoxy-3β-Hydroxy-Urs-12-Ene-28-Benzylamide-23-Oyl)-L-Valine Methyl Ester]: the midpoint of inhibition in data set [1] (MTT), the IC50, lay at 9.69 ± 1.64 µM.

For `CNC(=O)[C@@]1(C)[C@@H]2CC[C@]3(C)[C@H](CC=C4[C@@H]5[C@@H](C)[C@H](C)CC[C@]5(C(=O)NCc5ccccc5)CC[C@]43C)[C@@]2(C)C[C@@H](OC)[C@@H]1OC(C)=O` [Compound 14b, α-Methoxy-3β-Acetoxy-Urs-12-Ene-28-Benzyl Amide-23-Methylamide], the IC50 in data set [1] (MTT) was found to be 34.2 ± 7.87 µM.

Compound `CCOC(=O)CCCNC(=O)[C@@]1(C)[C@@H]2CC[C@]3(C)[C@H](CC=C4[C@@H]5[C@@H](C)[C@H](C)CC[C@]5(C(=O)NCc5ccccc5)CC[C@]43C)[C@@]2(C)C[C@@H](OC)[C@@H]1O` [Compound 13i, N-(2α-Methoxy-3β-Hydroxy-Urs-12-Ene-28-Benzylamide-23-Oyl)-4-Aminobutyric Ethyl Ester] displayed an IC50 in data set [1] (MTT) of 15.2 ± 1.99 µM.

As to `CNC(=O)[C@@]1(C)[C@@H]2CC[C@]3(C)[C@H](CC=C4[C@@H]5[C@@H](C)[C@H](C)CC[C@]5(C(=O)NCc5ccccc5)CC[C@]43C)[C@@]2(C)C[C@@H](OC)[C@@H]1O` [Compound 13b, α-Methoxy-3β-Hydroxy-Urs-12-Ene-28-Benzyl Amide-23-Methylamide], the IC50 in data set [1] (MTT) came out at 7.45 ± 3.53 µM.
